Reference: paper PMC9852833, “Functional evaluation of cyclosporine metabolism by CYP3A4 variants and potential drug interactions” (Frontiers in Pharmacology, 2023)
Each block holds one molecule with its values, some of them ahead of it.

Tests used:
[1] = system: metabolism of CsA in rat liver microsomes (RLMs); assay: Inhibition of CsA metabolism in rat liver microsomes (RLMs); conditions: for Inhibitory rate on the metabolism of CsA: screen of 132 drugs, RLMs […], Tris-HCl, NADPH 1 mM, AM1 by UPLC-MS/MS; for Inhibitory effect on the metabolism of CsA (in words): RLMs, comparison of five antihypertension drugs (Figure 2C)
Experimental: (§1) The concentrations of CsA, its main metabolite AM1, and diazepam (IS) were detected by UPLC–MS/MS equipped with a triple quadrupole and electrospray ionization (ESI) source. […] Briefly, the analytes were separated on a UPLC BEH C18 column (2.1 mm × 50 mm, 1.7 μm particle size). […] Solvent A (0.1% formic acid) and solvent B (acetonitrile) were applied as the mobile phase, with a gradient elution at a flow rate of 0.4 ml/min and an injection volume of 4 μl.
(§2) Reduced nicotinamide adenine dinucleotide phosphate (NADPH) (1 mmol/L) was added into the mixture after preincubation at 37°C for 5 min to initiate the reaction. The mixture was incubated for another 40 min, then cooled at −80°C to suspend the reaction. Then, 400 μl of acetonitrile and 20 μl of diazepam (200 ng/ml) were added to the frozen mixture. The mixtures were vortexed for 2 min and centrifuged at 13,000 rpm for 10 min. Finally, 4 μl of the mixture was injected for UPLC-MS/MS analysis.
(§3) A 200 μl system was incubated with either RLMs or HLMs (at a concentration of 0.15 mg/ml) containing drugs, CsA, RLMs or HLMs (all at a concentration of 0.15 mg/ml), Tris-HCl buffer, and 10 μl of NADPH (1 mM). […] The rest of the operation was the same as already described.

[2] = as above; conditions: SD
Experimental: as §1, §2, §3

[3] = system: metabolism of CsA in human liver microsomes (HLMs); CYP3A4; conditions: comparison of five antihypertension drugs (Figure 2D)
Experimental: as §1, §2, §3

[4] = Pharmacokinetics of CsA and AM1 in rats with or without nimodipine or nisoldipine; assay type: in vivo, Sprague–Dawley rats; conditions: male SD rats, plasma, UPLC-MS/MS, mean ± SD n = 6
Experimental: Sprague–Dawley male rats weighing 200–250 g were purchased from Shanghai Laboratory Animal Center (SLAC). After 2 weeks of laboratory adaptation, the rats were randomly divided into three groups with six rats in each group. […] All drugs were orally administered. […] The collected blood samples were centrifuged to obtain the plasma. Then, 150 μl of acetonitrile and 20 μl of diazepam (IS; 100 ng/ml) were added to 50 μl of plasma, mixed and vortexed for 2 min, centrifuged for 10 min, and 4 μl of the supernatant was used for UPLC-MS/MS injection analysis.
The pharmacokinetic parameters were evaluated by DAS 3.0.

[5] = metabolite after CsA 40 mg/kg oral + nimodipine 24 mg/kg oral
[6] = metabolite after CsA 40 mg/kg oral + nisoldipine 2 mg/kg oral
[7] = metabolite after CsA 40 mg/kg oral alone

Structure (SMILES): COC(=O)C1=C(C)NC(C)=C(C(=O)OCC(C)C)C1c1ccccc1[N+](=O)[O-] (stereo not shown) [nisoldipine, Nisoldipine]
Inhibitory effect on the metabolism of CsA (in words) [1]: almost completely blocked the metabolism of CsA
Inhibitory rate on the metabolism of CsA [1]: greater than 80%
IC50 [2]: 16.2 ± 0.78 µM
Inhibitory effect on the metabolism of CsA (in words) [3]: almost completely blocked the metabolism of CsA

Structure (SMILES): CO[C@H]1C[C@@H]2CC[C@@H](C)[C@@](O)(O2)C(=O)C(=O)N2CCCC[C@H]2C(=O)O[C@H]([C@H](C)C[C@@H]2CC[C@@H](OCCO)[C@H](OC)C2)CC(=O)[C@H](C)/C=C(\C)[C@@H](O)[C@@H](OC)C(=O)[C@H](C)C[C@H](C)/C=C/C=C/C=C/1C [everolimus, Everolimus]
Inhibitory rate on the metabolism of CsA [1]: greater than 80%

Structure (SMILES): CCOC(=O)C1=C(C)NC(C)=C(C(=O)OC)C1c1cccc(Cl)c1Cl (stereo not shown) [felodipine]
Inhibitory effect on the metabolism of CsA (in words) [1]: almost completely blocked the metabolism of CsA

Structure (SMILES): OCCOc1ccc(/C(=C(/CCCl)c2ccccc2)c2ccccc2)cc1 [ospemifene]
Inhibitory rate on the metabolism of CsA [1]: greater than 80%

Structure (SMILES): CC[C@@H]1NC(=O)[C@H]([C@H](O)[C@H](C)C/C=C/CO)N(C)C(=O)[C@H](C(C)C)N(C)C(=O)[C@H](CC(C)C)N(C)C(=O)[C@H](CC(C)C)N(C)C(=O)[C@@H](C)NC(=O)[C@H](C)NC(=O)[C@H](CC(C)C)N(C)C(=O)[C@H](C(C)C)NC(=O)[C@H](CC(C)C)N(C)C(=O)CN(C)C1=O [AM1, CsA M-17]
AUC(0-t) of AM1 [4, 5]: 3,291.60 ± 1,213.46 μg/L·h
AUC(0-∞) of AM1 [4, 5]: 3,504.89 ± 1,223.40 μg/L·h
CLz/F of AM1 [4, 5]: 207 ± 60 mL/min/kg
Cmax of AM1 [4, 5]: 192.68 ± 69.42 ng/mL
Tmax of AM1 [4, 5]: 7.00 ± 2.68 h
Vz/F of AM1 [4, 5]: 198.16 ± 99.97 L/kg
t1/2z of AM1 [4, 5]: 10.83 ± 3.52 h
AUC(0-t) of AM1 [4, 6]: 1,548.46 ± 482.43 μg/L·h
AUC(0-∞) of AM1 [4, 6]: 2,128.73 ± 887.82 μg/L·h
CLz/F of AM1 [4, 6]: 354.3 ± 122 mL/min/kg
Cmax of AM1 [4, 6]: 110.32 ± 19.52 ng/mL
Tmax of AM1 [4, 6]: 6.17 ± 1.60 h
Vz/F of AM1 [4, 6]: 494.23 ± 201.15 L/kg
t1/2z of AM1 [4, 6]: 19.58 ± 13.45 h
AUC(0-t) of AM1 [4, 7]: 2,275.37 ± 620.96 μg/L·h
AUC(0-∞) of AM1 [4, 7]: 2,542.74 ± 779.21 μg/L·h
CLz/F of AM1 [4, 7]: 283.8 ± 88.5 mL/min/kg
Cmax of AM1 [4, 7]: 141.21 ± 30.64 ng/mL
Tmax of AM1 [4, 7]: 6.83 ± 1.33 h
Vz/F of AM1 [4, 7]: 264.78 ± 145.01 L/kg
t1/2z of AM1 [4, 7]: 12.10 ± 9.00 h

Structure (SMILES): C=CC[C@@H]1/C=C(\C)C[C@H](C)C[C@H](OC)[C@H]2O[C@@](O)(C(=O)C(=O)N3CCCC[C@H]3C(=O)O[C@H](/C(C)=C/[C@@H]3CC[C@@H](O)[C@H](OC)C3)[C@H](C)[C@@H](O)CC1=O)[C@H](C)C[C@@H]2OC [tacrolimus, Tacrolimus]
Inhibitory rate on the metabolism of CsA [1]: greater than 80%

Structure (SMILES): COCCOC(=O)C1=C(C)NC(C)=C(C(=O)OC(C)C)C1c1cccc([N+](=O)[O-])c1 (stereo not shown) [nimodipine, Nimodipine]
Inhibitory effect on the metabolism of CsA (in words) [1]: almost completely blocked the metabolism of CsA

The remaining lines, values ahead:

Inhibitory rate on the metabolism of CsA [1]: greater than 80%
Structure (SMILES): N#CC1(c2ccc(NC(=O)c3cccnc3NCc3ccncc3)cc2)CCCC1 [apatinib, Apatinib]

Inhibitory rate on the metabolism of CsA [1]: greater than 80%
Structure (SMILES): C[C@@H](c1ncncc1F)[C@](O)(Cn1cncn1)c1ccc(F)cc1F [voriconazole, Voriconazole]

Inhibitory rate on the metabolism of CsA [1]: greater than 80%
Structure (SMILES): C[C@@H](c1nc(-c2ccc(C#N)cc2)cs1)[C@](O)(Cn1cncn1)c1cc(F)ccc1F [isavuconazole, Isavuconazole]

Inhibitory rate on the metabolism of CsA [1]: greater than 80%
Structure (SMILES): Cc1cccc(C)c1OCC(=O)N[C@@H](Cc1ccccc1)[C@@H](O)C[C@H](Cc1ccccc1)NC(=O)[C@H](C(C)C)N1CCCNC1=O [lopinavir, Lopinavir]
